Test results published in PMC3193528, “Isothermal Titration Calorimetric Studies on the Interaction of the Major Bovine Seminal Plasma Protein, PDC-109 with Phospholipid Membranes” (PLoS ONE, 2011).

Experiments:
PDC-109 [1] = target: T1, PDC-109 (Bos taurus, UniProt P02784); experiment: isothermal titration calorimetry, one set of sites model; format: binding; conditions: read-out: K a×10^-5 (M^-1) (converted)
T1 construct: native, purified from bull seminal plasma; 109 residues, 23-residue N-terminal stretch plus two Fn-II domains; mixture of glycoforms BSP-A1 and BSP-A2; polydisperse aggregate in solution
T1 sequence (P02784 26-134): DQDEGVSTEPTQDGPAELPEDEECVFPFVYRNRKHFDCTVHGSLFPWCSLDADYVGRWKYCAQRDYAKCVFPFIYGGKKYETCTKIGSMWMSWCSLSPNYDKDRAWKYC
Description: isothermal titration calorimetry, one set of sites model on PDC-109

PDC-109 [2] = target: T1, PDC-109; experiment: isothermal titration calorimetry, two sets of sites model; format: binding; conditions: 25 °C; stronger site of two-site fit (n = 0.9), assigned to micelles; acyl chain of lipid not given; read-out: K a (converted)

Molecule | Kd (PDC-109 [1]) | Kd (PDC-109 [2])
CCCCCCCCCCCCCC(=O)OC[C@H](COP(=O)([O-])OCC[N+](C)(C)C)OC(=O)CCCCCCCCCCCCC [DMPC] | 2.44 µM | –
CCCCCCCCCCCCCC(=O)OC[C@H](COP(=O)(O)OCC(O)CO)OC(=O)CCCCCCCCCCCCC (stereo partly shown) [DMPG] | 38.5 µM | –
CCCCCCCCCCCCCCCC(=O)OC[C@H](COP(=O)([O-])OCC[N+](C)(C)C)OC(=O)CCCCCCCCCCCCCCC [DPPC] | 7.69 µM | –
Lyso-PC | – | 1.43 µM
